Results from ChEMBL document CHEMBL1141887, “Design and synthesis of (E)-1,1,2-triarylethenes: novel inhibitors of the cyclooxygenase-2 (COX-2) isozyme” (Bioorg Med Chem Lett, 2005).

Molecular target: T1, Prostaglandin G/H synthase 1 (Ovis aries, UniProt P05979)
T1 sequence (P05979 whole entry): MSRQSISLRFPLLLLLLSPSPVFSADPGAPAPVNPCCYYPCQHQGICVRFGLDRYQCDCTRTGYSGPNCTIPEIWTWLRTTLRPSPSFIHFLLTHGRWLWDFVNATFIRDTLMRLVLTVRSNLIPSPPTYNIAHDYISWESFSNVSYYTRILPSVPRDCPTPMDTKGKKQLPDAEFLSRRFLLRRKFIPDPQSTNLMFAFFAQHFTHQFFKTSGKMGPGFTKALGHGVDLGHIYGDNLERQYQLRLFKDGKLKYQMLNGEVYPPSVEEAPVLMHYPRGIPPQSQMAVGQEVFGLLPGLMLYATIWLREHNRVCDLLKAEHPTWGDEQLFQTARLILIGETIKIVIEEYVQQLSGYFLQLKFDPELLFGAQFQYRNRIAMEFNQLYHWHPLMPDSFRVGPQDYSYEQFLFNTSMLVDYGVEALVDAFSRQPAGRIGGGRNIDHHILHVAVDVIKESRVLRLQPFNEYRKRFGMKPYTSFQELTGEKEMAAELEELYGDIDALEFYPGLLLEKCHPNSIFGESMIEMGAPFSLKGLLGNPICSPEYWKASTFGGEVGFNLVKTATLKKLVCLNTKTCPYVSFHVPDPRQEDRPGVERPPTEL
Assay: In vitro inhibitory concentration against ovine Cyclooxygenase-1

Structure (SMILES)	IC50 [µM]
CS(=O)(=O)c1ccc(C=C(c2ccc(F)cc2)c2ccc(F)cc2)cc1	> 100
CS(=O)(=O)c1ccc(/C(=C/c2ccc(Cl)cc2)c2ccccc2)cc1	> 100
CS(=O)(=O)c1ccc(/C(=C/c2ccc(F)cc2)c2ccccc2)cc1	> 100
CS(=O)(=O)c1ccc(C=C(c2ccc(Cl)cc2)c2ccc(Cl)cc2)cc1	> 100
CS(=O)(=O)c1ccc(/C(=C/c2ccc(F)c(F)c2)c2ccccc2)cc1	> 100

Continued, values first:

IC50 [µM]	Structure (SMILES)
0.14	CS(=O)(=O)c1ccc(/C(=C/c2ccccc2)c2ccccc2)cc1
> 100	Cc1ccc(/C=C(\c2ccccc2)c2ccc(S(C)(=O)=O)cc2)cc1
> 100	Cc1ccc(C(=Cc2ccc(S(C)(=O)=O)cc2)c2ccc(C)cc2)cc1
